# Results as given in PMC12785583, “Coconut Milk-Derived Bioactive Peptides as Multifunctional Agents Against Hyperglycemia, Oxidative Stress, and Glycation: An Integrated Experimental and Computational Study” (International Journal of Molecular Sciences, 2025).
# Where two headings read alike, the source gives them in different places.
# Tests used:
# [1] = DPPH radical scavenging assay; details: for EC50: read-out: DPPH Radical Scavenging Assay EC50 (value in bracket) (converted)
# Description: The antioxidant assays of the test compounds were conducted in vitro, following previous studies, using the standard DPPH, ABTS, and superoxide radical scavenging assays. Regarding the DPPH assay, 0.2 mL of the test samples (peptides 1 and 2) at various concentrations was added to 1.2 mL of a 40 μg/mL DPPH solution in methanol. The mixtures were shaken vigorously and incubated in the dark for 20 min, after which the reduction in DPPH absorption was measured at 517 nm. The samples without DPPH and with methanol served as blanks. Ascorbic acid was used as the positive control.
# [2] = ABTS radical scavenging assay; details: for EC50: read-out: ABTS Radical Scavenging Assay EC50 (value in bracket) (converted)
# Description: Concerning the ABTS assay, the ABTS^•+ radical cation was generated. Subsequently, 0.05 mL of the test samples (peptides 1 and 2) at various concentrations was mixed with 4.00 mL of ABTS^•+ solution and kept in the dark at room temperature for two h. The absorbance was determined at 734 nm using a UV–Vis Spectrophotometer (UV-1280 Shimadzu, Germany). Ascorbic acid was used as the positive control, and samples without the ABTS radical solution served as blanks. The results were expressed as the effective concentration (EC50) values.
# [3] = superoxide radical scavenging assay (NBT); details: for EC50: read-out: Superoxide Radical Scavenging Assay EC50 (value in bracket) (converted)
# Description: After 10 min of incubation at 25 °C in the dark, absorbance was recorded at 560 nm. Samples without NBT served as blanks, and ascorbic acid was used as the positive control. The results were expressed as the effective concentration (EC50) values.
# [4] = methylglyoxal scavenging (Maillard reaction model, DNPH assay)
# Description: This preliminary assay was conducted to evaluate the methylglyoxal scavenging activity of peptides derived from coconut milk. The Maillard reaction was employed to assess the scavenging potential of peptides against methylglyoxal, using parameters as outlined in previous studies by Risum et al., Zhu et al., and Brings et al., with modifications. The reaction mixture (1 mL) consisted of both peptides at different concentrations, methylglyoxal (0.01 mM), phosphate buffer, and water. It was incubated at two temperatures: room temperature (followed by immediate termination) and 37 °C (for 2 h). Following the incubation time, the reaction was terminated by adding 10 μL of glacial acetic acid. Creatine was used as a positive control. The experiments were performed in triplicate.
# The scavenging potential of the peptides against methylglyoxal was determined using the DNPH assay. In brief, 25 μL of the sample was mixed with 975 μL of water and 1000 μL of DNPH reagent. The reaction mixture was shaken well and incubated at 37 °C for 10 min. Following incubation, the reaction was terminated by adding 1000 μL of 1.5 N NaOH, and the absorbance of the yellowish-orange complex was measured at 525 nm using […]: the MGO blank and the Creatine blank. Scavenging efficiency was calculated using Equations (4) and (5).(4) ACORR=Asample−Ablank (5) MGOscavenging=1−Acorr/AMGO,corr·100 where Asample is the absorbance of the reaction mixture containing methylglyoxal and the test compound (peptide or creatine), Ablank is the absorbance of the reagent blank (without methylglyoxal and without test compound), and AMGO,corr is the blank-corrected absorbance of the methylglyoxal blank (AMGO-Ablank). The creatine control was processed in the same way as the peptide samples.
# aldose reductase [5] = target: aldose reductase; design: method as in doi:10.3390/separations9090262; details: cited from earlier work
# human aldose reductase = target: human aldose reductase; design: method as in doi:10.1016/j.fbio.2025.107775; details: cited from earlier work
# [6] = cited from earlier work
# aldose reductase [7] = target: T1, aldose reductase (Homo sapiens, UniProt P15121); assay: enzyme inhibition kinetics (Lineweaver-Burk), aldose reductase; format: biochemical; design: Vmax: unit not given here
# Source text: (§1) Enzyme inhibition by coconut milk peptide 2 was further characterised for α-glucosidase, α-amylase and aldose reductase by steady-state kinetic analysis. […] In this context, v denotes the initial rate of product formation, whereas [S] denotes the concentration of the chromogenic or natural substrate used in each assay. Michaelis explained how v depends on [S] for each condition, as described by the Michaelis–Menten equation (Equation (2)):(2) v=VmaxS/Km+S Lineweaver–Burk double-reciprocal plots (Equation (3)) were then constructed by plotting 1/v versus 1/[S]:(3) 1/v=Km/Vmax·1/S+1/Vmax Michaelis–Menten parameters (Km and Vmax) and apparent inhibition constants (Ki) were obtained from these Lineweaver–Burk plots.
# aldose reductase [8] = target: T1, aldose reductase; assay: aldose reductase inhibition assay; format: biochemical
# Description: The aldose reductase inhibition assay was performed according to the method described by Alharbi et al.. Briefly, a 1 mL reaction mixture comprised 0.87 mL of 100 mM Sodium phosphate buffer (pH 6.2), 0.05 mL of 3 mM NADPH, 0.01 mL of human aldose reductase (recombinant, 0.2 U/mL), with the enzyme’s activity being 0.2 IU/mL, and 0.02 mL of test compounds (designated as peptide 1 and peptide 2) at different concentrations. 0.05 mL of the substrate (DL-glyceraldehyde, five mM) was incubated in the reaction mixture for 3 min at 25 °C. Enzyme activity was determined by measuring the reduction in NADPH absorption at 340 nm over 10 min. […] Aldose reductase inhibitory activity was expressed as the percentage of inhibition.
# α-glucosidase = assay: enzyme inhibition kinetics (Lineweaver-Burk), α-glucosidase; format: biochemical, Saccharomyces cerevisiae; design: Vmax: unit not given here
# Source text: as §1
# yeast α-glucosidase = assay: α-glucosidase inhibition assay; format: biochemical, Saccharomyces cerevisiae; details: for IC50: read-out: α-Glucosidase Inhibition IC50 (value in bracket) (converted)
# Description: The α-glucosidase inhibition assay was performed following the method described by Huligere et al.. […] In this assay, one unit of activity was defined as the amount of enzyme required to release one µmol of p-nitrophenol from pNPG per minute under the specified experimental conditions. […] The reaction was maintained at 37 °C for an additional 20 min. Enzyme activity was determined by measuring the absorbance of liberated p-nitrophenol at 405 nm using a microplate reader (Spectramax i3, Molecular Devices, LLC, San Jose, CA, USA). […] IC50 values were determined by relating the percentage inhibition of each sample to its concentration.
# [9] = target: T2, porcine pancreatic α-amylase (Sus scrofa, UniProt P00690); assay: α-amylase inhibition assay; format: biochemical
# T2 construct: purchased SRL (Sisco Research Laboratories)
# T2 sequence (P00690 16-511): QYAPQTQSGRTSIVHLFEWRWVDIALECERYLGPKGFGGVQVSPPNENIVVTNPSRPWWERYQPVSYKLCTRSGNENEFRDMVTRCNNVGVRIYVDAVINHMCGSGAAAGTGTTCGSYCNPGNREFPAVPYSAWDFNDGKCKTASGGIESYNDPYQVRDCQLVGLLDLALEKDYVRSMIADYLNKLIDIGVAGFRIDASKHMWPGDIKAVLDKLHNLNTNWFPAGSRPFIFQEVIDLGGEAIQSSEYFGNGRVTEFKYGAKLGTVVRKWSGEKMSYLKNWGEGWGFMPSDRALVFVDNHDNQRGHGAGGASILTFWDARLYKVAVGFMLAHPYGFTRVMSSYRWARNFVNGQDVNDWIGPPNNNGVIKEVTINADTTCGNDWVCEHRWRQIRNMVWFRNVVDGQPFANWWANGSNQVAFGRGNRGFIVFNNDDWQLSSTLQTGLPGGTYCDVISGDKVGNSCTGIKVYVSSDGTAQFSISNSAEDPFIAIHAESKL
# Description: The enzymatic reaction was initiated by adding the starch substrate and allowed to proceed for 15 min. The reaction was then terminated by adding the 3,5-dinitrosalicylic acid (DNSA) reagent, and the mixture was heated to boiling for 5 min. […] IC50 values were obtained from plots of percentage inhibition versus sample concentration.
# α-amylase = target: T3, α-amylase (Sus scrofa, UniProt P00690); assay: enzyme inhibition kinetics (Lineweaver-Burk), α-amylase; format: biochemical, porcine; design: Vmax: unit not given here
# T3 construct: purchased SRL (Sisco Research Laboratories)
# T3 sequence (P00690 16-511): T2 sequence (P00690 16-511)
# Source text: as §1
# human erythrocytes = assay: hemolytic assay; format: cell-based
# Description: The hemolytic potential of the lead peptides was determined following an established erythrocyte hemolysis protocol. In brief, 15 mL of venous blood was drawn from a healthy individual, centrifuged at 3000 rpm for 10 min, and the plasma was discarded. The residual pellet (RBCs) was washed 3 times with PBS (pH 7.4, 0.1 M), and the resultant pellet was resuspended in PBS in a 1:10 ratio. Subsequently, 0.9 mL of the RBC suspension was incubated with 0.1 mL of peptides at various concentrations, a negative control (100 μL PBS + 900 μL RBC suspension), and a positive control (100 μL of 0.5% Triton-X-100 + 900 μL of RBC suspension), and incubated at 37 °C for 24 h. Post incubation, all tubes were centrifuged at 3000 rpm for 10 min. 0.1 mL of the supernatant was then transferred to 96-well plates, and the absorbance of the supernatant was read at 540 nm. […] The corrected values were calculated as Acontrol=Apos−Aneg and Asample=Atest−Aneg where Apos , Aneg and Atest are the absorbance values of the positive control, negative control, and peptide-treated sample (given concentration), respectively.
# [10] = read-out: Methylglyoxal Scavenging EC50 at 37 °C, 2 h (value in bracket), 37 °C, 2 h
# [11] = room temperature, immediate termination, read-out: Methylglyoxal Scavenging EC50 at RT (value in bracket) (converted)
# [12] = mean ± SE, read-out: Ki (apparent inhibition constant) (converted)
molecule,measurement,setting,value
"O=C1O[C@H]([C@@H](O)CO)C(O)=C1O [Ascorbic acid, reference compound]",DPPH Radical Scavenging Assay EC50,[1],28.65 ± 0.17 µg/mL
same,EC50,[1],163 µM
same,ABTS Radical Scavenging Assay EC50,[2],22.74 ± 0.27 µg/mL
same,EC50,[2],129 µM
same,Superoxide Radical Scavenging Assay EC50,[3],57.71 ± 0.16 µg/mL
same,EC50,[3],328 µM
"CN(CC(=O)O)C(=N)N [Creatine, reference compound]","Methylglyoxal Scavenging EC50 at 37 °C, 2 h","[4]; 37 °C, 2 h",230.05 ± 0.34 µg/mL
same,EC50,[4]; [10],1750 µM
same,EC50,[4]; [11],1750 µM
C[C@@H]1O[C@@H](OC[C@H]2O[C@@H](Oc3c(-c4ccc(O)c(O)c4)oc4cc(O)cc(O)c4c3=O)[C@H](O)[C@@H](O)[C@@H]2O)[C@H](O)[C@H](O)[C@H]1O [rutin],aldose reductase IC50,aldose reductase [5],7.86 ± 0.33 µg/mL
O=C(O)Cn1c(=O)n(Cc2ccc(Br)cc2F)c(=O)c2ccc(Cl)cc21 [zenarestat],human aldose reductase IC50,human aldose reductase,59.68 ± 0.47 µg/mL
GDMNP,superoxide anion radical scavenging EC50,[6],400 ± 8 µg/mL
"H-ADVFNPR-OH [Peptide 2, ADVFNPR]","Methylglyoxal Scavenging EC50 at 37 °C, 2 h","[4]; 37 °C, 2 h",182.17 ± 0.23 µg/mL
same,EC50,[4]; [10],223 µM
same,Methylglyoxal Scavenging EC50 at RT,"[4]; room temperature, immediate termination",208.10 ± 0.65 µg/mL
same,EC50,[4]; [11],254 µM
same,Vmax,aldose reductase [7]; IC20—8.12 µg,46.64
same,Vmax,aldose reductase [7]; IC40—16.23 µg,46.02
same,Vmax,aldose reductase [7]; IC60—24.35 µg,45.55
same,Mode of inhibition,aldose reductase [7]; from Lineweaver–Burk plot,Competitive
same,Ki,aldose reductase [7]; [12],0.954 µM
same,Vmax (essentially constant),aldose reductase [7]; over IC20–IC60,~46 µM/min
same,IC50,"aldose reductase [8]; mean ± SD, read-out: Aldose Reductase Inhibition IC50 (converted)",24.8 µM
same,IC50,aldose reductase [8]; read-out: Aldose Reductase Inhibition IC50 (value in bracket) (converted),24.8 µM
same,Vmax,α-glucosidase; IC20—13.13 µg,14.87
same,Vmax,α-glucosidase; IC40—26.26 µg,14.68
same,Vmax,α-glucosidase; IC60—39.39 µg,14.50
same,Mode of inhibition,α-glucosidase; from Lineweaver–Burk plot,Competitive
same,Ki (apparent inhibition constant),α-glucosidase; mean ± SE,0.95 ± 0.09 µg
same,Vmax (essentially constant),α-glucosidase; over IC20–IC60,~15 µM/min
same,IC50,yeast α-glucosidase; listed as peptide 2,40.1 µM
same,α-Glucosidase Inhibition IC50,yeast α-glucosidase; mean ± SD,32.82 ± 0.17 µg/mL
same,IC50,yeast α-glucosidase,40.1 µM
same,IC50,"[9]; mean ± SD, read-out: α-Amylase Inhibition IC50 (converted)",103 µM
same,IC50,[9]; read-out: α-Amylase Inhibition IC50 (value in bracket) (converted),103 µM
same,DPPH Radical Scavenging Assay EC50,[1],22.14 ± 0.12 µg/mL
same,EC50,[1],27.1 µM
same,ABTS Radical Scavenging Assay EC50,[2],17.89 ± 0.20 µg/mL
same,EC50,[2],21.9 µM
same,Vmax,α-amylase; IC20—33.55 µg,27.75
same,Vmax,α-amylase; IC40—67.10 µg,26.26
same,Vmax,α-amylase; IC60—100.60 µg,27.50
same,Mode of inhibition,α-amylase; from Lineweaver–Burk plot,Competitive
same,Ki,α-amylase; [12],1.64 µM
same,Vmax (essentially constant),α-amylase; over IC20–IC60,~27 µM/min
same,Superoxide Radical Scavenging Assay EC50,[3],42.45 ± 0.30 µg/mL
same,EC50,[3],51.9 µM
same,Hemolytic Assay (HC50),human erythrocytes,231.53 ± 0.14 µg/mL
same,Hemolytic Assay (HC50) (value in bracket),"human erythrocytes; red cells of human, 24 h",283.08 µM
LLLRW,superoxide anion radical scavenging EC50,[6],430 ± 12 µg/mL
